According to patent US20070128217A1 (priority 2003, published 2007):

Key:
[1] = test system: control sera (pooled serum of ten healthy LUMC hospital workers; commercial negative donor pooled serum from the Dutch bloodbank); format: binding, human; set-up: Binding of Control serum LUMC to linear peptides / Binding of Control serum Blood-bank to linear peptides / Binding of Control serum LUMC to looped peptides / Binding of Control Serum Blood-Bank to Looped peptides / Binding of Control serum LUMC to linear peptides of the protein M of SARS-CoV Urbani / Binding of Control serum Blood-bank to linear peptides of the protein M of SARS-CoV Urbani / Binding of Control serum LUMC to looped peptides of the protein M of SARS-CoV Urbani / Binding of Control Serum Blood-Bank to Looped peptides of the protein M of SARS-CoV Urbani: unit not given here
[2] = test system: antibodies in sera from SARS patients (sera 1a, 1b, 2, 6, 37, 62, London, SARS-yellow, SARS-green); format: binding, human; set-up: Binding of serum 6 to linear peptides of protein X1 of SARS-CoV Urbani / Binding of serum 37 to linear peptides of protein X1 of SARS-CoV Urbani / Binding of serum 6 to looped/cyclic peptide (PEPSCAN-ELISA) / Binding of serum 37 to looped/cyclic peptide (PEPSCAN-ELISA) / Binding of serum 37 to looped/cyclic peptides of protein X1 of SARS-CoV Urbani / Binding of serum 6 to linear peptides of protein X2 / Binding of serum 37 to linear peptides of protein X2 / Binding of serum 37 to looped/cyclic peptides of protein X2 of SARS-CoV Urbani / Binding of serum 6 to linear peptides of protein M of SARS-CoV Urbani / Binding of serum 37 to linear peptides of protein M of SARS-CoV Urbani / Binding of serum 6 to looped/cyclic peptides of protein M of SARS-CoV Urbani / Binding of serum 37 to looped/cyclic peptides of protein M of SARS-CoV Urbani / Binding of serum 6 to linear peptides of protein X3 of SARS-CoV Urbani / Binding of serum 37 to linear peptides of protein X3 of SARS-CoV Urbani / Binding of serum 37 to looped/cyclic peptides of protein X3 of SARS-CoV Urbani / Binding of serum 6 to linear peptides of protein X4 of SARS-CoV Urbani / Binding of serum 37 to linear peptides of protein X4 of SARS-CoV Urbani / Binding of serum 37 to looped/cyclic peptides of protein X4 of SARS-CoV Urbani / Binding of serum 6 to linear peptides of protein X5 of SARS-CoV Urbani / Binding of serum 37 to linear peptides of protein X5 of SARS-CoV Urbani / Binding of serum 37 to looped/cyclic peptides of protein X5 of SARS-CoV Urbani / Binding of serum 6 to linear peptides of protein N of SARS-CoV Urbani / Binding of serum 37 to linear peptides of protein N of SARS-CoV Urbani / Binding of serum 6 to linear peptide (PEPSCAN-ELISA) / Binding of serum 1a to looped/cyclic peptides of protein N of SARS-CoV Urbani / Binding of serum 1b to looped/cyclic peptides of protein N of SARS-CoV Urbani / Binding of serum 2 to looped/cyclic peptides of protein N of SARS-CoV Urbani / Binding of serum 6 to looped/cyclic peptides of protein N of SARS-CoV Urbani / Binding of serum 37 to looped/cyclic peptides of protein N of SARS-CoV Urbani / Binding of serum 62 to looped/cyclic peptides of protein N of SARS-CoV Urbani / Binding of serum London to looped/cyclic peptides of protein N of SARS-CoV Urbani / Binding of serum SARS-green to looped/cyclic peptides of protein N of SARS-CoV Urbani: unit not given here
[3] = test system: rabbit serum obtained by immunizing a rabbit with the SARS-CoV strain Frankfurt 1; format: binding; set-up: Binding of a rabbit serum to linear peptides / Binding of a rabbit serum to looped peptides / Rabbit serum linear peptides / Rabbit serum looped peptides / Binding of a rabbit serum to linear peptides of protein N of SARS-CoV Urbani (Rabbit serum linear peptides) / Binding of a rabbit serum to looped/cyclic peptides of protein N of SARS-CoV Urbani (Rabbit serum looped peptides): unit not given here

Row | Sequence | Binding of Control Serum Blood-Bank to Looped peptides [1] | Binding of Control serum Blood-bank to linear peptides [1] | Binding of Control serum LUMC to linear peptides [1] | Binding of Control serum LUMC to looped peptides [1] | Binding of serum 1a to linear peptides of protein X1 of SARS-CoV Urbani [2] | Binding of serum 1b to linear peptides of protein X1 of SARS-CoV Urbani [2] | Binding of serum 2 to linear peptides of protein X1 of SARS-CoV Urbani [2] | Binding of serum 6 to linear peptides of protein X1 of SARS-CoV Urbani [2] | Binding of serum 37 to linear peptides of protein X1 of SARS-CoV Urbani [2] | Binding of serum 62 to linear peptides of protein X1 of SARS-CoV Urbani [2] | Binding of serum London to linear peptides of protein X1 of SARS-CoV Urbani [2] | Binding of serum SARS-green to linear peptides of protein X1 of SARS-CoV Urbani [2] | Binding of serum SARS-yellow to linear peptides of protein X1 of SARS-CoV Urbani [2] | Binding of a rabbit serum to linear peptides [3] | Binding of a rabbit serum to looped peptides [3] | other results
1 | IVVTEGDGISTPKLK | 0.3 | 0.3 | 0.3 | 0.3 | 0.5 | 0.5 | 0.3 | 0.4 | 0.5 | 0.3 | 0.2 | 0.1 | 0.1 | 0.1 | 0.4 | Binding of serum 1a to looped/cyclic peptides of protein X1 of SARS-CoV Urbani [2]: 0.3; Binding of serum 1b to looped/cyclic peptides of protein X1 of SARS-CoV Urbani [2]: 0.2; Binding of serum 2 to looped/cyclic peptides of protein X1 of SARS-CoV Urbani [2]: 0.1; Binding of serum 6 to looped/cyclic peptides of protein X1 of SARS-CoV Urbani [2]: 0.1; Binding of serum 37 to looped/cyclic peptides of protein X1 of SARS-CoV Urbani [2]: 0.2; Binding of serum 62 to looped/cyclic peptides of protein X1 of SARS-CoV Urbani [2]: 0.3; Binding of serum London to looped/cyclic peptides of protein X1 of SARS-CoV Urbani [2]: 0.1; Binding of serum SARS-green to looped/cyclic peptides of protein X1 of SARS-CoV Urbani [2]: 0.0; Binding of serum SARS-yellow to looped/cyclic peptides of protein X1 of SARS-CoV Urbani [2]: 0.1
2 | VIGVAFLAVFQSATK | 0.5 | 0.5 | 0.5 | 0.5 | 0.5 | 0.4 | 0.4 | 0.4 | 0.5 | 0.4 | 0.2 | 0.1 | 0.2 | 0.1 | 0.6 | Binding of serum 1a to looped/cyclic peptide (PEPSCAN-ELISA) [2]: 0.4; Binding of serum 1b to looped/cyclic peptide (PEPSCAN-ELISA) [2]: 0.3; Binding of serum 2 to looped/cyclic peptide (PEPSCAN-ELISA) [2]: 0.3; Binding of serum 6 to looped/cyclic peptide (PEPSCAN-ELISA) [2]: 0.6; Binding of serum 37 to looped/cyclic peptide (PEPSCAN-ELISA) [2]: 0.4; Binding of serum 62 to looped/cyclic peptide (PEPSCAN-ELISA) [2]: 0.4; Binding of serum London to looped/cyclic peptide (PEPSCAN-ELISA) [2]: 0.7; Binding of serum SARS-green to looped/cyclic peptide (PEPSCAN-ELISA) [2]: 0.2; Binding of serum SARS-yellow to looped/cyclic peptide (PEPSCAN-ELISA) [2]: 0.5
3 | THITMTTVYHITVSQ | 0.6 | 0.3 | 0.8 | 0.7 | – | – | – | – | – | – | – | – | – | 0.7 | 0.4 | Binding of serum 1a to linear peptides of protein X2 [2]: 0.6; Binding of serum 1a to looped/cyclic peptides of protein X2 of SARS-CoV Urbani [2]: 0.6; Binding of serum 1b to linear peptides of protein X2 [2]: 0.5; Binding of serum 1b to looped/cyclic peptides of protein X2 of SARS-CoV Urbani [2]: 0.6; Binding of serum 2 to linear peptides of protein X2 [2]: 0.4; Binding of serum 2 to looped/cyclic peptides of protein X2 of SARS-CoV Urbani [2]: 0.3; Binding of serum 6 to linear peptides of protein X2 [2]: 0.6; Binding of serum 6 to looped/cyclic peptides of protein X2 of SARS-CoV Urbani [2]: 0.2; Binding of serum 37 to linear peptides of protein X2 [2]: 0.7; Binding of serum 37 to looped/cyclic peptides of protein X2 of SARS-CoV Urbani [2]: 0.5; Binding of serum 62 to linear peptides of protein X2 [2]: 0.4; Binding of serum 62 to looped/cyclic peptides of protein X2 of SARS-CoV Urbani [2]: 0.6; Binding of serum London to linear peptides of protein X2 [2]: 0.4; Binding of serum London to looped/cyclic peptides of protein X2 of SARS-CoV Urbani [2]: 0.2; Binding of serum SARS-green to linear peptides of protein X2 [2]: 0.4; Binding of serum SARS-green to looped/cyclic peptides of protein X2 of SARS-CoV Urbani [2]: 0.3; Binding of serum SARS-yellow to linear peptides of protein X2 [2]: 0.5; Binding of serum SARS-yellow to looped/cyclic peptides of protein X2 of SARS-CoV Urbani [2]: 0.5
